Experimental data: ChEMBL document CHEMBL1201862, “PubChem BioAssay data set” (2004)
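Results reflect a 48-hour exposure of cells in 96-well plates to compound at five concentrations. Abbreviation: GI50, concentration required for 50% inhibition of growth.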 Calls of active or inactive are those of the source. No stated cut-off is given here; in the data, active = GI50 up to about 1.1 µM and inactive = higher.

Tests used:
Experiment in all cases: NCI tumour cell line growth inhibition, 48 h
K562 = test system: K562
UACC-257 = test system: UACC-257
HCT-15 = test system: HCT-15
HOP-62 = test system: HOP-62
ACHN = test system: ACHN
SK-MEL-2 = test system: SK-MEL-2
SF-268 = test system: SF-268
OVCAR-8 = test system: OVCAR-8
U-251 = test system: U-251
M14 = test system: M14
SNB-19 = test system: SNB-19
SK-OV-3 = test system: SK-OV-3
UO-31 = test system: UO-31
MDA-MB-231 = test system: MDA-MB-231
NCI-H226 = test system: NCI-H226
IGROV-1 = test system: IGROV-1
KM12 = test system: KM12
SN12C = test system: SN12C
TK-10 = test system: TK-10
EKVX = test system: EKVX

For `COc1cc([C@@]23OC[C@@H]4[C@@H](OC[C@@H]42)c2cc4c(cc23)OCO4)cc(OC)c1OC`, the GI50 (K562) was < 0.0208 µM (active), the GI50 (UACC-257) was < 0.01 µM (active) and the GI50 (HCT-15) was less than 0.01 µM. The GI50 (HOP-62) was < 0.01 µM (active), the GI50 (ACHN) was < 0.0127 µM (active) and the GI50 (SK-MEL-2) was < 0.01 µM (active). The GI50 (SF-268) was 0.0851 µM (active), the GI50 (OVCAR-8) was < 0.01 µM (active) and the GI50 (U-251) was < 0.01 µM (active). The GI50 (M14) was < 0.01 µM (active), the GI50 (SNB-19) was < 0.01 µM (active) and the GI50 (SK-OV-3) was < 0.01 µM (active). The GI50 (UO-31) was < 0.01 µM (active), the GI50 (MDA-MB-231) was < 0.01 µM (active) and the GI50 (NCI-H226) was < 0.01 µM (active). For the same compound, the GI50 (IGROV-1) was < 0.01 µM (active) and the GI50 (KM12) was < 0.01 µM (active).
With `C=C1C(=O)O[C@H]2C(=O)[C@H](C)CCC[C@@](C)(O)/C=C\C[C@@]3(C)O[C@@H]3C[C@@H]12` the GI50 (UACC-257) was 14.1 µM (inactive), the GI50 (HCT-15) was 11.5 µM and the GI50 (SN12C) was 17.1 µM (inactive). For the same compound, the GI50 (ACHN) was 8.02 µM (inactive), the GI50 (SK-MEL-2) was 19.5 µM (inactive) and the GI50 (SF-268) was 23.3 µM (inactive). The GI50 (OVCAR-8) was 19.9 µM (inactive), the GI50 (U-251) was 18.3 µM (inactive) and the GI50 (M14) was 11.3 µM (inactive). For the same compound, the GI50 (TK-10) was 4.19 µM (inactive), the GI50 (SNB-19) was 35.8 µM (inactive) and the GI50 (SK-OV-3) was > 100 µM (inactive). The GI50 (UO-31) was 13.5 µM (inactive), the GI50 (MDA-MB-231) was 21.7 µM (inactive) and the GI50 (NCI-H226) was 82.2 µM (inactive). For the same compound, the GI50 (IGROV-1) was 20.3 µM (inactive) and the GI50 (KM12) was 22.2 µM (inactive).
`N#Cc1c(N)nc(Sc2ccccc2N)c(C#N)c1-c1ccccc1` was tested, and the GI50 (K562) was 9.53 µM (inactive), the GI50 (UACC-257) was 24.9 µM (inactive) and the GI50 (HCT-15) was 15.2 µM. For the same compound, the GI50 (HOP-62) was 22.1 µM (inactive), the GI50 (EKVX) was 16.2 µM (inactive) and the GI50 (ACHN) was 19.9 µM (inactive). The GI50 (SK-MEL-2) was 10.9 µM (inactive), the GI50 (SF-268) was 17.8 µM (inactive) and the GI50 (OVCAR-8) was 20.2 µM (inactive). The GI50 (U-251) was 19.6 µM (inactive), the GI50 (M14) was 24.2 µM (inactive) and the GI50 (TK-10) was 11.5 µM (inactive). The GI50 (SNB-19) was 29.4 µM (inactive), the GI50 (UO-31) was 11.4 µM (inactive) and the GI50 (MDA-MB-231) was 14 µM (inactive). For the same compound, the GI50 (NCI-H226) was 47.2 µM (inactive), the GI50 (IGROV-1) was 16.9 µM (inactive) and the GI50 (KM12) was 17.8 µM (inactive).
`CCOC(=O)C(C)(C)C(O)C(C)C` (stereo not drawn) was tested, and the GI50 (K562) was > 100 µM (inactive), the GI50 (UACC-257) was > 100 µM (inactive) and the GI50 (HCT-15) was greater than 100 µM. For the same compound, the GI50 (HOP-62) was > 100 µM (inactive), the GI50 (SN12C) was > 100 µM (inactive) and the GI50 (EKVX) was > 100 µM (inactive). For the same compound, the GI50 (ACHN) was > 100 µM (inactive), the GI50 (SK-MEL-2) was > 100 µM (inactive) and the GI50 (SF-268) was > 100 µM (inactive). For the same compound, the GI50 (OVCAR-8) was > 100 µM (inactive), the GI50 (U-251) was > 100 µM (inactive) and the GI50 (M14) was > 100 µM (inactive). The GI50 (TK-10) was > 100 µM (inactive), the GI50 (SNB-19) was > 100 µM (inactive) and the GI50 (SK-OV-3) was > 100 µM (inactive). For the same compound, the GI50 (UO-31) was > 100 µM (inactive), the GI50 (MDA-MB-231) was > 100 µM (inactive) and the GI50 (IGROV-1) was > 100 µM (inactive). The GI50 (KM12) was > 100 µM (inactive).
For `CCNC(=O)Nc1cccc(NC(=O)NCC)n1`, the GI50 (K562) was > 100 µM (inactive), the GI50 (UACC-257) was 92.9 µM (inactive) and the GI50 (HOP-62) was 81.8 µM (inactive). For the same compound, the GI50 (SN12C) was > 100 µM (inactive), the GI50 (EKVX) was 35.8 µM (inactive) and the GI50 (ACHN) was > 100 µM (inactive). The GI50 (SF-268) was > 100 µM (inactive), the GI50 (OVCAR-8) was > 100 µM (inactive) and the GI50 (U-251) was > 100 µM (inactive). For the same compound, the GI50 (M14) was > 100 µM (inactive), the GI50 (TK-10) was 50.2 µM (inactive) and the GI50 (SNB-19) was > 100 µM (inactive). The GI50 (SK-OV-3) was > 100 µM (inactive), the GI50 (UO-31) was 43.8 µM (inactive) and the GI50 (MDA-MB-231) was > 100 µM (inactive). For the same compound, the GI50 (NCI-H226) was > 100 µM (inactive), the GI50 (IGROV-1) was > 100 µM (inactive) and the GI50 (KM12) was > 100 µM (inactive).
With `CNC(=O)OCC1C2=C(C(=O)C(C)=C(N)C2=O)N2CC3C(N3C)C12OC` (stereo not drawn) the GI50 (K562) was 25.6 µM (inactive), the GI50 (UACC-257) was 21.4 µM (inactive) and the GI50 (HCT-15) was 12.1 µM. For the same compound, the GI50 (HOP-62) was 14.4 µM (inactive), the GI50 (SN12C) was 5.61 µM (inactive) and the GI50 (EKVX) was > 100 µM (inactive). The GI50 (ACHN) was 3.8 µM (inactive), the GI50 (SK-MEL-2) was 26.1 µM (inactive) and the GI50 (OVCAR-8) was 11.4 µM (inactive). For the same compound, the GI50 (U-251) was 14.1 µM (inactive), the GI50 (M14) was 7.24 µM (inactive) and the GI50 (TK-10) was 27.7 µM (inactive). For the same compound, the GI50 (SNB-19) was 3.3 µM (inactive), the GI50 (SK-OV-3) was 28.9 µM (inactive) and the GI50 (MDA-MB-231) was > 100 µM (inactive). The GI50 (NCI-H226) was 32.1 µM (inactive) and the GI50 (IGROV-1) was 12.4 µM (inactive).
For `COc1cccc(-c2cc(O)c3cccnc3n2)c1`, the GI50 (K562) was 0.0339 µM (active), the GI50 (UACC-257) was > 100 µM (inactive) and the GI50 (HCT-15) was 0.0873 µM. For the same compound, the GI50 (HOP-62) was 0.104 µM (active), the GI50 (SN12C) was 0.406 µM (active) and the GI50 (ACHN) was 0.179 µM (active). For the same compound, the GI50 (SK-MEL-2) was > 100 µM (inactive), the GI50 (SF-268) was 0.611 µM (active) and the GI50 (OVCAR-8) was 0.235 µM (active). For the same compound, the GI50 (U-251) was 0.0984 µM (active), the GI50 (M14) was 0.0575 µM (active) and the GI50 (TK-10) was > 100 µM (inactive). For the same compound, the GI50 (SNB-19) was 0.213 µM (active), the GI50 (UO-31) was 12.3 µM (inactive) and the GI50 (MDA-MB-231) was 1.27 µM (inactive). For the same compound, the GI50 (NCI-H226) was 0.325 µM (active), the GI50 (IGROV-1) was 0.432 µM (active) and the GI50 (KM12) was 0.0581 µM (active).
For `Nc1ncnc2c1ncn2C1OC(CO)CC1O` (stereo not drawn), the GI50 (K562) was 7.93 µM (inactive), the GI50 (UACC-257) was > 100 µM (inactive) and the GI50 (HCT-15) was 17.6 µM. The GI50 (HOP-62) was 29.3 µM (inactive), the GI50 (SN12C) was 25.6 µM (inactive) and the GI50 (EKVX) was 40.6 µM (inactive). For the same compound, the GI50 (ACHN) was > 100 µM (inactive), the GI50 (SF-268) was 53.7 µM (inactive) and the GI50 (OVCAR-8) was 16.6 µM (inactive). For the same compound, the GI50 (U-251) was 41.7 µM (inactive), the GI50 (M14) was 38.2 µM (inactive) and the GI50 (TK-10) was > 100 µM (inactive). The GI50 (SNB-19) was 26.9 µM (inactive), the GI50 (SK-OV-3) was 51.9 µM (inactive) and the GI50 (UO-31) was > 100 µM (inactive). For the same compound, the GI50 (MDA-MB-231) was 17.9 µM (inactive), the GI50 (NCI-H226) was > 100 µM (inactive) and the GI50 (IGROV-1) was > 100 µM (inactive). For the same compound, the GI50 (KM12) was 22 µM (inactive).
